Experimental data taken from the supplement of paper PMC10307832.

What was measured:
Experiment in all cases: relative viability (nuclei count vs DMSO), 5 days (fraction); higher = more cells survive
201T = tested on: 201T
How it was run: (§1)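 Lung cancer cell lines were pin-tool dosed in 1536-well plates on the day after seeding, with either a lone drug or a fixed anchor-drug dose plus five library-drug doses (not always all listed) in √10 steps. Nuclei were counted on 4× images after 5 days. Relative viability is the ratio of treated-well to vehicle-well nuclei counts, with each value a median of duplicate plates.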

A-427 = tested on: A-427
How it was run: as §1

BEN = tested on: BEN
How it was run: as §1

COR-L23 = tested on: COR-L23
How it was run: as §1

EKVX = tested on: EKVX
How it was run: as §1

HARA = tested on: HARA
How it was run: as §1

HCC-15 = tested on: HCC-15
How it was run: as §1

HCC-44 = tested on: HCC-44
How it was run: as §1

HCC-827 = tested on: HCC-827
How it was run: as §1

NCI-H1437 = tested on: NCI-H1437
How it was run: as §1

NCI-H1650 = tested on: NCI-H1650
How it was run: as §1

NCI-H1666 = tested on: NCI-H1666
How it was run: as §1

NCI-H1792 = tested on: NCI-H1792
How it was run: as §1

NCI-H1975 = tested on: NCI-H1975
How it was run: as §1

NCI-H23 = tested on: NCI-H23
How it was run: as §1

NCI-H358 = tested on: NCI-H358
How it was run: as §1

NCI-H596 = tested on: NCI-H596
How it was run: as §1

NCI-H650 = tested on: NCI-H650
How it was run: as §1

NCI-H838 = tested on: NCI-H838
How it was run: as §1

SK-MES-1 = tested on: SK-MES-1
How it was run: as §1

Q: For `O=c1cc(N2CCOCC2)oc2c(-c3cccc4c3sc3ccccc34)cccc12` + CS(=O)(=O)CCNCc1ccc(-c2ccc3ncnc(Nc4ccc(OCc5cccc(F)c5)c(Cl)c4)c3c2)o1 [Lapatinib] (partner 2 µM), which relative viability (201T; first compound 0.01 µM) is on record?
A: Its relative viability is 1.11.

Q: What about the relative viability (201T; first compound 0.03162 µM) of the same compound?
A: Its relative viability is 1.03.

Q: What about the relative viability (201T; first compound 0.1 µM) of the same compound?
A: The relative viability was 1.06.

Q: And the relative viability (201T; first compound 0.3162 µM)?
A: The relative viability was 0.997.

Q: What about the relative viability (201T; first compound 1 µM) of the same compound?
A: The relative viability was 0.968.

Q: What about the relative viability (A-427; first compound 0.01 µM) of the same compound?
A: Its relative viability is 1.12.

Q: And the relative viability (A-427; first compound 0.03162 µM)?
A: The relative viability was 1.01.

Q: And the relative viability (A-427; first compound 0.1 µM)?
A: The relative viability was 0.982.

Q: And the relative viability (A-427; first compound 0.3162 µM)?
A: The relative viability was 1.01.

Q: What about the relative viability (A-427; first compound 1 µM) of the same compound?
A: Its relative viability is 1.05.

Q: And the relative viability (BEN; first compound 0.01 µM)?
A: The relative viability was 0.662.

Q: What about the relative viability (BEN; first compound 0.03162 µM) of the same compound?
A: Its relative viability is 0.843.

Q: What about the relative viability (BEN; first compound 0.1 µM) of the same compound?
A: Its relative viability is 0.69.

Q: What about the relative viability (BEN; first compound 0.3162 µM) of the same compound?
A: Its relative viability is 0.735.

Q: What about the relative viability (BEN; first compound 1 µM) of the same compound?
A: The relative viability was 0.67.

Q: What about the relative viability (COR-L23; first compound 0.01 µM) of the same compound?
A: The relative viability was 1.01.

Q: What about the relative viability (COR-L23; first compound 0.03162 µM) of the same compound?
A: The relative viability was 0.823.

Q: And the relative viability (COR-L23; first compound 0.1 µM)?
A: The relative viability was 0.924.

Q: And the relative viability (COR-L23; first compound 0.3162 µM)?
A: The relative viability was 0.843.

Q: What about the relative viability (COR-L23; first compound 1 µM) of the same compound?
A: Its relative viability is 1.

Q: What about the relative viability (EKVX; first compound 0.01 µM) of the same compound?
A: The relative viability was 0.218.

Q: And the relative viability (EKVX; first compound 0.03162 µM)?
A: Its relative viability is 0.216.

Q: And the relative viability (EKVX; first compound 0.1 µM)?
A: The relative viability was 0.196.

Q: What about the relative viability (EKVX; first compound 0.3162 µM) of the same compound?
A: Its relative viability is 0.202.

Q: And the relative viability (EKVX; first compound 1 µM)?
A: Its relative viability is 0.219.

Q: And the relative viability (HARA; first compound 0.01 µM)?
A: Its relative viability is 0.547.

Q: What about the relative viability (HARA; first compound 0.03162 µM) of the same compound?
A: The relative viability was 0.756.

Q: And the relative viability (HARA; first compound 0.1 µM)?
A: Its relative viability is 0.702.

Q: And the relative viability (HARA; first compound 0.3162 µM)?
A: Its relative viability is 0.797.

Q: What about the relative viability (HARA; first compound 1 µM) of the same compound?
A: Its relative viability is 0.665.

Q: And the relative viability (HCC-15; first compound 0.01 µM)?
A: The relative viability was 0.823.

Q: What about the relative viability (HCC-15; first compound 0.03162 µM) of the same compound?
A: Its relative viability is 0.881.

Q: What about the relative viability (HCC-15; first compound 0.1 µM) of the same compound?
A: The relative viability was 0.999.

Q: And the relative viability (HCC-15; first compound 0.3162 µM)?
A: Its relative viability is 0.871.

Q: What about the relative viability (HCC-15; first compound 1 µM) of the same compound?
A: Its relative viability is 0.86.

Q: What about the relative viability (HCC-44; first compound 0.01 µM) of the same compound?
A: The relative viability was 1.01.

Q: What about the relative viability (HCC-44; first compound 0.03162 µM) of the same compound?
A: Its relative viability is 0.995.

Q: And the relative viability (HCC-44; first compound 0.1 µM)?
A: The relative viability was 1.11.

Q: What about the relative viability (HCC-44; first compound 0.3162 µM) of the same compound?
A: The relative viability was 0.946.

Q: What about the relative viability (HCC-44; first compound 1 µM) of the same compound?
A: The relative viability was 1.07.

Q: What about the relative viability (HCC-827; first compound 0.01 µM) of the same compound?
A: The relative viability was 0.222.

Q: What about the relative viability (HCC-827; first compound 0.03162 µM) of the same compound?
A: The relative viability was 0.213.

Q: And the relative viability (HCC-827; first compound 0.1 µM)?
A: The relative viability was 0.215.

Q: What about the relative viability (HCC-827; first compound 0.3162 µM) of the same compound?
A: Its relative viability is 0.186.

Q: What about the relative viability (HCC-827; first compound 1 µM) of the same compound?
A: Its relative viability is 0.256.

Q: What about the relative viability (NCI-H1437; first compound 0.01 µM) of the same compound?
A: Its relative viability is 0.793.

Q: What about the relative viability (NCI-H1437; first compound 0.03162 µM) of the same compound?
A: The relative viability was 0.783.

Q: What about the relative viability (NCI-H1437; first compound 0.1 µM) of the same compound?
A: The relative viability was 0.811.

Q: What about the relative viability (NCI-H1437; first compound 0.3162 µM) of the same compound?
A: The relative viability was 0.849.

Q: And the relative viability (NCI-H1437; first compound 1 µM)?
A: Its relative viability is 0.813.

Q: What about the relative viability (NCI-H1650; first compound 0.03162 µM) of the same compound?
A: Its relative viability is 0.831.

Q: What about the relative viability (NCI-H1650; first compound 0.1 µM) of the same compound?
A: The relative viability was 0.775.

Q: And the relative viability (NCI-H1650; first compound 0.3162 µM)?
A: Its relative viability is 0.756.

Q: And the relative viability (NCI-H1650; first compound 1 µM)?
A: Its relative viability is 0.75.

Q: And the relative viability (NCI-H1666; first compound 0.01 µM)?
A: The relative viability was 0.555.

Q: What about the relative viability (NCI-H1666; first compound 0.03162 µM) of the same compound?
A: Its relative viability is 0.735.

Q: And the relative viability (NCI-H1666; first compound 0.1 µM)?
A: The relative viability was 0.715.

Q: What about the relative viability (NCI-H1666; first compound 0.3162 µM) of the same compound?
A: Its relative viability is 0.614.

Q: And the relative viability (NCI-H1666; first compound 1 µM)?
A: The relative viability was 0.591.

Q: And the relative viability (NCI-H1792; first compound 0.01 µM)?
A: The relative viability was 0.884.

Q: And the relative viability (NCI-H1792; first compound 0.03162 µM)?
A: The relative viability was 0.896.

Q: What about the relative viability (NCI-H1792; first compound 0.1 µM) of the same compound?
A: Its relative viability is 0.808.

Q: And the relative viability (NCI-H1792; first compound 0.3162 µM)?
A: The relative viability was 0.874.

Q: And the relative viability (NCI-H1792; first compound 1 µM)?
A: Its relative viability is 0.828.

Q: And the relative viability (NCI-H1975; first compound 0.01 µM)?
A: Its relative viability is 0.856.

Q: And the relative viability (NCI-H1975; first compound 0.03162 µM)?
A: The relative viability was 0.84.

Q: What about the relative viability (NCI-H1975; first compound 0.1 µM) of the same compound?
A: The relative viability was 0.848.

Q: What about the relative viability (NCI-H1975; first compound 0.3162 µM) of the same compound?
A: The relative viability was 0.849.

Q: And the relative viability (NCI-H1975; first compound 1 µM)?
A: The relative viability was 0.826.

Q: And the relative viability (NCI-H23; first compound 0.01 µM)?
A: Its relative viability is 0.992.

Q: What about the relative viability (NCI-H23; first compound 0.03162 µM) of the same compound?
A: Its relative viability is 1.09.

Q: What about the relative viability (NCI-H23; first compound 0.3162 µM) of the same compound?
A: The relative viability was 1.1.

Q: And the relative viability (NCI-H23; first compound 1 µM)?
A: The relative viability was 1.22.

Q: And the relative viability (NCI-H358; first compound 0.01 µM)?
A: Its relative viability is 0.515.

Q: What about the relative viability (NCI-H358; first compound 0.03162 µM) of the same compound?
A: The relative viability was 0.478.

Q: And the relative viability (NCI-H358; first compound 0.1 µM)?
A: Its relative viability is 0.482.

Q: What about the relative viability (NCI-H358; first compound 0.3162 µM) of the same compound?
A: The relative viability was 0.467.

Q: What about the relative viability (NCI-H358; first compound 1 µM) of the same compound?
A: Its relative viability is 0.433.

Q: What about the relative viability (NCI-H596; first compound 0.01 µM) of the same compound?
A: Its relative viability is 1.11.

Q: And the relative viability (NCI-H596; first compound 0.03162 µM)?
A: Its relative viability is 1.16.

Q: What about the relative viability (NCI-H596; first compound 0.1 µM) of the same compound?
A: Its relative viability is 1.06.

Q: And the relative viability (NCI-H596; first compound 0.3162 µM)?
A: Its relative viability is 1.16.

Q: What about the relative viability (NCI-H596; first compound 1 µM) of the same compound?
A: The relative viability was 1.16.

Q: What about the relative viability (NCI-H650; first compound 0.01 µM) of the same compound?
A: Its relative viability is 0.769.

Q: What about the relative viability (NCI-H650; first compound 0.03162 µM) of the same compound?
A: The relative viability was 0.973.

Q: What about the relative viability (NCI-H650; first compound 0.3162 µM) of the same compound?
A: Its relative viability is 1.17.

Q: What about the relative viability (NCI-H650; first compound 1 µM) of the same compound?
A: The relative viability was 0.77.

Q: And the relative viability (NCI-H838; first compound 0.01 µM)?
A: Its relative viability is 1.08.

Q: And the relative viability (NCI-H838; first compound 0.03162 µM)?
A: The relative viability was 0.915.

Q: And the relative viability (NCI-H838; first compound 0.1 µM)?
A: Its relative viability is 0.984.

Q: What about the relative viability (NCI-H838; first compound 0.3162 µM) of the same compound?
A: The relative viability was 0.97.

Q: What about the relative viability (NCI-H838; first compound 1 µM) of the same compound?
A: The relative viability was 0.969.

Q: And the relative viability (SK-MES-1; first compound 0.01 µM)?
A: The relative viability was 0.51.

Q: What about the relative viability (SK-MES-1; first compound 0.03162 µM) of the same compound?
A: The relative viability was 0.53.

Q: And the relative viability (SK-MES-1; first compound 0.1 µM)?
A: The relative viability was 0.487.

Q: What about the relative viability (SK-MES-1; first compound 0.3162 µM) of the same compound?
A: Its relative viability is 0.453.

Q: And the relative viability (SK-MES-1; first compound 1 µM)?
A: The relative viability was 0.407.
